Measured values as given in US9902736B2, “1-oxo/acylation-14-acylated oridonin derivative, preparation method therefor and application thereof” (HANGZHOU BENSHENG PHARMACEUTICAL CO., LTD., priority 2012, dated 2018).
Values after ≈ are worked out from the molar mass of the structure shown.

Experiments:
RPMI 8226 = experiment: Multiple myeloma cell growth inhibition, MTT, 72 h; format: cell-based; conditions: Homo sapiens
Method: Multiple myeloma cell lines: RPMI8226 (multiple myeloma), purchased from Fuxiang Bio-tech Co. Ltd., Shanghai, China.
(§1) 6000 well-growing cells were obtained and inoculated into wells of a 96-well cell culture plate. […] On the next day, the 1-oxo/acylated-14-acylated oridonin derivatives of different concentrations were added and mixed uniformly. The plate was placed in a carbon dioxide cell incubator (5% CO2) at 37° C. and incubated for 72 hours. Then the viable cell concentration was determined by MTT method.

Kasumi-1 = experiment: Leukemia cell growth inhibition, MTT, 72 h; format: cell-based; conditions: Homo sapiens
Description: (§2) Leukemia cell lines: leukemia cell lines: K562/adr (drug-resistant, chronic myeloid leukemia, CML), NB4 (acute promyelocytic leukemia, AML), Kasumi-1 (acute myeloid leukemia M2 type, AML-M2), Jurkat (acute lymphoblastic leukemia, ALL), all of which were donated by Cancer Research Institute of Zhejiang University, China; and H9 (acute lymphoblastic leukemia, ALL), which was purchased from China Center for Type Culture Collection.
as §1, with “6000 well-growing leukemia cells were” for “6000 well-growing cells were”, “C. and was incubated for” for “C. and incubated for”

K562/ADR = experiment: Leukemia cell growth inhibition, MTT, 72 h; format: cell-based; conditions: Homo sapiens
Description: as §2
as §1, with “6000 well-growing leukemia cells were” for “6000 well-growing cells were”, “C. and was incubated for” for “C. and incubated for”

Becap-37 = experiment: Solid tumor cell growth inhibition, MTT, 72 h; format: cell-based; conditions: Homo sapiens
Method: (§3) 6000 well-growing human solid tumor cells were obtained and inoculated into wells of a 96-well cell culture plate. The culture medium was DMEM High Glucose cell culture medium containing 10% fetal bovine serum. The plate was placed in a carbon dioxide cell incubator (5% CO2) at 37° C. and incubated for 24 hours. After added with 1-oxo/acylated-14-acylated oridonin derivatives of different concentration and mixed uniformly, the plate was placed in a carbon dioxide cell incubator (5% CO2) at 37° C. and incubated for 72 hours. Then the viable cell concentration was determined by MTT method.

A549 = experiment: Solid tumor cell growth inhibition, MTT, 72 h; format: cell-based; conditions: Homo sapiens
Method: as §3

PC-3 = experiment: Solid tumor cell growth inhibition, MTT, 72 h; format: cell-based; conditions: Homo sapiens
Method: as §3

RKO = experiment: Solid tumor cell growth inhibition, MTT, 72 h; format: cell-based; conditions: Homo sapiens
Method: as §3

Hep G2 = experiment: Solid tumor cell growth inhibition, MTT, 72 h; format: cell-based; conditions: Homo sapiens, HepG2
Method: as §3

SK-OV-3 = experiment: Solid tumor cell growth inhibition, MTT, 72 h; format: cell-based; conditions: Homo sapiens, SK-OV-3, 72 h, MTT; for IC50: read-out: IC50 SK-OV-3; for IC90: read-out: IC90 SK-OV-3
Method: as §3

MG-63 = experiment: Solid tumor cell growth inhibition, MTT, 72 h; format: cell-based; conditions: Homo sapiens
Method: as §3

PANC-1 = experiment: Solid tumor cell growth inhibition, MTT, 72 h; format: cell-based; conditions: Homo sapiens
Method: as §3

CaEs-17 = experiment: Solid tumor cell growth inhibition, MTT, 72 h; format: cell-based; conditions: Homo sapiens, CaEs17
Method: as §3

U87-MG = experiment: Solid tumor cell growth inhibition, MTT, 72 h; format: cell-based; conditions: Homo sapiens, U-87 MG
Method: as §3

Jurkat = experiment: Leukemia cell growth inhibition, MTT, 72 h; format: cell-based, human; conditions: Homo sapiens, Jurkat; 72 h, MTT
Description: as §2
as §1, with “6000 well-growing leukemia cells were” for “6000 well-growing cells were”, “C. and was incubated for” for “C. and incubated for”

H9 = experiment: Leukemia cell growth inhibition, MTT, 72 h; format: cell-based, human; conditions: Homo sapiens, H9; 72 h, MTT
Description: as §2
as §1, with “6000 well-growing leukemia cells were” for “6000 well-growing cells were”, “C. and was incubated for” for “C. and incubated for”

NB4 = experiment: Leukemia cell growth inhibition, MTT, 72 h; format: cell-based, human; conditions: Homo sapiens, NB-4; 72 h, MTT
Description: as §2
as §1, with “6000 well-growing leukemia cells were” for “6000 well-growing cells were”, “C. and was incubated for” for “C. and incubated for”

Hep-2 = experiment: Solid tumor cell growth inhibition, MTT, 72 h; format: cell-based, human; conditions: Homo sapiens, HEp-2; 72 h, MTT
Method: as §3

MGC-803 = experiment: Solid tumor cell growth inhibition, MTT, 72 h; format: cell-based, human; conditions: Homo sapiens, MGC-803; 72 h, MTT
Method: as §3

Hela = experiment: Solid tumor cell growth inhibition, MTT, 72 h; format: cell-based, human; conditions: Homo sapiens, HeLa; 72 h, MTT
Method: as §3

CNE = experiment: Solid tumor cell growth inhibition, MTT, 72 h; format: cell-based, human; conditions: Homo sapiens, CNE; 72 h, MTT
Method: as §3

Compound | IC50 (RPMI 8226) | IC90 (RPMI 8226) | IC50 (Kasumi-1) | IC90 (Kasumi-1) | IC50 (K562/ADR) | IC90 (K562/ADR) | IC50 (Becap-37) | IC90 (Becap-37) | IC50 (A549) | IC90 (A549) | IC50 (PC-3) | IC90 (PC-3) | IC50 (RKO) | IC90 (RKO) | IC50 (Hep G2) | IC90 (Hep G2) | IC50 (SK-OV-3) | IC90 (SK-OV-3) | IC50 (MG-63) | IC90 (MG-63) | other results
C=C1C(=O)[C@]23[C@H](OC(=O)c4cccs4)[C@H]1CC[C@H]2[C@@]12CO[C@@]3(O)[C@@H](O)[C@@H]1C(C)(C)CCC2=O [BS-OR-007] | 0.37 µg/mL (≈ 0.783 µM) | 2.59 µg/mL (≈ 5.48 µM) | 0.71 µg/mL (≈ 1.5 µM) | 1.76 µg/mL (≈ 3.72 µM) | 0.47 µg/mL (≈ 0.995 µM) | 1.86 µg/mL (≈ 3.94 µM) | 1.02 µg/mL (≈ 2.16 µM) | 3.8 µg/mL (≈ 8.04 µM) | 2.13 µg/mL (≈ 4.51 µM) | 5.34 µg/mL (≈ 11.3 µM) | 1.69 µg/mL (≈ 3.58 µM) | 4.6 µg/mL (≈ 9.73 µM) | 0.43 µg/mL (≈ 0.91 µM) | 0.95 µg/mL (≈ 2.01 µM) | 1.54 µg/mL (≈ 3.26 µM) | 10.8 µg/mL (≈ 22.9 µM) | 1.69 µg/mL (≈ 3.58 µM) | 4.6 µg/mL (≈ 9.73 µM) | 0.42 µg/mL (≈ 0.889 µM) | 0.96 µg/mL (≈ 2.03 µM) | IC50 (PANC-1): 1.63 µg/mL (≈ 3.45 µM); IC90 (PANC-1): 8.55 µg/mL (≈ 18.1 µM); IC50 (CaEs-17): 0.93 µg/mL (≈ 1.97 µM); IC90 (CaEs-17): 5.32 µg/mL (≈ 11.3 µM); IC50 (U87-MG): 0.78 µg/mL (≈ 1.65 µM); IC90 (U87-MG): 3.21 µg/mL (≈ 6.79 µM); IC50 (Jurkat): 0.71 µg/mL (≈ 1.5 µM); IC90 (Jurkat): 4.45 µg/mL (≈ 9.42 µM); IC50 (H9): 0.41 µg/mL (≈ 0.868 µM); IC90 (H9): 0.92 µg/mL (≈ 1.95 µM); IC50 (NB4): 0.08 µg/mL (≈ 0.169 µM); IC90 (NB4): 0.47 µg/mL (≈ 0.995 µM); IC50 (Hep-2): 1.76 µg/mL (≈ 3.72 µM); IC90 (Hep-2): 9.2 µg/mL (≈ 19.5 µM); IC50 (MGC-803): 0.95 µg/mL (≈ 2.01 µM); IC90 (MGC-803): 9.79 µg/mL (≈ 20.7 µM); IC50 (Hela): 1.64 µg/mL (≈ 3.47 µM); IC90 (Hela): 4.92 µg/mL (≈ 10.4 µM); IC50 (CNE): 1.33 µg/mL (≈ 2.81 µM); IC90 (CNE): 5.16 µg/mL (≈ 10.9 µM)
C=C1C(=O)[C@]23[C@H](OC(=O)c4ccc(OC)c(OC)c4)[C@H]1CC[C@H]2[C@@]12CO[C@@]3(O)[C@@H](O)[C@@H]1C(C)(C)CCC2=O [BS-OR-015] | 0.3 µg/mL (≈ 0.57 µM) | 1.85 µg/mL (≈ 3.51 µM) | 0.51 µg/mL (≈ 0.969 µM) | 1.15 µg/mL (≈ 2.18 µM) | 0.51 µg/mL (≈ 0.969 µM) | 1.97 µg/mL (≈ 3.74 µM) | 0.99 µg/mL (≈ 1.88 µM) | 3.17 µg/mL (≈ 6.02 µM) | 2.38 µg/mL (≈ 4.52 µM) | 5.33 µg/mL (≈ 10.1 µM) | 1.66 µg/mL (≈ 3.15 µM) | 3.04 µg/mL (≈ 5.77 µM) | 0.42 µg/mL (≈ 0.798 µM) | 0.94 µg/mL (≈ 1.79 µM) | 0.94 µg/mL (≈ 1.79 µM) | 5.47 µg/mL (≈ 10.4 µM) | 1.66 µg/mL (≈ 3.15 µM) | 3.04 µg/mL (≈ 5.77 µM) | 0.4 µg/mL (≈ 0.76 µM) | 0.96 µg/mL (≈ 1.82 µM) | IC50 (PANC-1): 1.88 µg/mL (≈ 3.57 µM); IC90 (PANC-1): 9.81 µg/mL (≈ 18.6 µM); IC50 (CaEs-17): 0.95 µg/mL (≈ 1.8 µM); IC90 (CaEs-17): 3.05 µg/mL (≈ 5.79 µM); IC50 (U87-MG): 0.87 µg/mL (≈ 1.65 µM); IC90 (U87-MG): 2.41 µg/mL (≈ 4.58 µM); IC50 (Jurkat): 0.69 µg/mL (≈ 1.31 µM); IC90 (Jurkat): 2.31 µg/mL (≈ 4.39 µM); IC50 (H9): 0.45 µg/mL (≈ 0.855 µM); IC90 (H9): 1.82 µg/mL (≈ 3.46 µM); IC50 (NB4): 0.11 µg/mL (≈ 0.209 µM); IC90 (NB4): 0.43 µg/mL (≈ 0.817 µM); IC50 (Hep-2): 1.12 µg/mL (≈ 2.13 µM); IC90 (Hep-2): 5.05 µg/mL (≈ 9.59 µM); IC50 (MGC-803): 0.84 µg/mL (≈ 1.6 µM); IC90 (MGC-803): 4.68 µg/mL (≈ 8.89 µM); IC50 (Hela): 1.53 µg/mL (≈ 2.91 µM); IC90 (Hela): 3.75 µg/mL (≈ 7.12 µM); IC50 (CNE): 1.05 µg/mL (≈ 1.99 µM); IC90 (CNE): 4.05 µg/mL (≈ 7.69 µM)
